According to patent US20240299353A1, “COMPOSITIONS AND METHODS FOR TREATING […] 5-MEO-DMT” (Alvarius Pharmaceuticals Ltd., priority 2021, published 2024):

Columns and labels:
[1] = test system: mGluR5; experiment: Western blot of mGluR5 in brain regions, chronic cocaine ± 5-MeO-DMT; assay type: in vivo, Male Wistar rats
Text: (§1) Male Wistar rats aged 7 weeks were acclimatized to the facility for 1 week prior to the beginning of the study. […] Animals were euthanized 23- or 119-hours following vehicle or 5-MeO-DMT administration.
Following euthanasia brain regions of interest were isolated. Briefly, the olfactory bulbs were removed before the brain was placed in a rat brain matrix (FIG. 2A). Sterile blades were inserted at positions 2 and 3 (FIG. 2B) to extract a coronal slice containing the Bregma+˜0.2-+˜2.2 coordinates (FIG. 2C). From this tissue slice a blunted 12 G needle was used to punch dissect the NAc and dorsal striatum (DS) (FIG. 2D-2E) identified using the rat brain atlas (Panxinos and Watson 2nd edition). […]
Determination of protein concentration—a bicinchoninic acid assay (BCA, ThermoFisher) was conducted to determine the total protein concentration in tissue lysates following manufacturer's instructions. […] For tissue lysates a 1:10 dilution was performed with cell lysis buffer to ensure absorbance values lay within the working range established by the standards. […] The plate was covered and incubated for 30 mins at 37° C. before absorbance was read at 562 nm on a plate reader (SpectraMax M3). The absorbance values were used to form a standard curve of known protein concentrations and protein concentration of samples were derived using the equation of the line. […]

[2] = i.p. administration, rodents; cited from earlier work
[3] = test system: FosB; experiment: Western blot of FosB in brain regions, chronic cocaine ± 5-MeO-DMT; assay type: in vivo, Male Wistar rats
Text: as §1
(§2) Following euthanasia brain regions of interest were isolated. Briefly, the olfactory bulbs were removed before the brain was placed in a rat brain matrix (FIG. 2A). Sterile blades were inserted at positions 2 and 3 (FIG. 2B) to extract a coronal slice containing the Bregma+˜0.2-+˜2.2 coordinates (FIG. 2C). From this tissue slice a blunted 12 G needle was used to punch dissect the NAc and dorsal striatum (DS) (FIG. 2D-2E) identified using the rat brain atlas (Panxinos and Watson 2nd edition). The PFC, hippocampus (Hip) and amygdala (Amyg) were then blunt dissected (FIG. 3A-3D). All regions were frozen in liquid nitrogen and stored at −80° C. until processed.
(§3) These treatment groups were used for the molecular assessment of addiction-linked markers.
(§4) Determination of protein concentration—a bicinchoninic acid assay (BCA, ThermoFisher) was conducted to determine the total protein concentration in tissue lysates following manufacturer's instructions. Briefly, bovine serum albumin (BSA) standards were prepared in a serial dilution (0-2.0 mg protein/ml) and 200 μl working reagent (50:1, reagent A: reagent B) was added to each of the standards and samples in a 96 well plate (Greiner). For tissue lysates a 1:10 dilution was performed with cell lysis buffer to ensure absorbance values lay within the working range established by the standards. All samples and standards were added in duplicate. The plate was covered and incubated for 30 mins at 37° C. before absorbance was read at 562 nm on a plate reader (SpectraMax M3). The absorbance values were used to form a standard curve of known protein concentrations and protein concentration of samples were derived using the equation of the line. All samples were standardized to the lowest protein concentration using distilled H20 (dH2O).
(§5) SDS-PAGE and Western Blotting—Following equalisation of protein concentrations, 6× sample loading buffer (15% SDS, 15% […], 50% glycerol, 0.01% bromophenol blue, […]) was added to each sample using a dilution factor of 1:5 of the total volumes before boiling at 100° C. for 5 mins. Samples were stored at −20° C. until use. One dimensional sodium-dodecyl-sulphate polyacrylamide gel electrophoresis (SDS-PAGE) was used for protein separation based on molecular weight. The percentage of acrylamide in the resolving or stacking gel was determined by the molecular weight of the protein of interest. In this instance all gels consisted of a 5% stacking gel and a 10% resolving gel with the exception of mGluR5, G9a (8%) and H3K9Me2 (12%). 20 μg of protein was loaded and resolved using SDS-PAGE. Gel electrophoresis was conducted at 80V while the protein was in the stacking gel, once it migrated to the resolving gel the voltage was increased to 120V and ran for 90 mins. Samples were transferred to a 0.45 μm polyvinylidene difluoride (PVDF) membrane (Analab) for 1 hour at 100V and blocked in 5% milk blocking solution made in tris-buffered saline containing tween®-20 (TBS-T, Sigma) for 90 mins. Primary antibodies (FIG. 5) were diluted in 5% BSA in TBS-T and incubated with membranes overnight at 4° C. or for 2 hours at room temperature. After incubation with primary antibodies the membranes were washed in TBS-T for 4×10 minutes before incubation with 1:2000 anti-rabbit and 1:2000 anti-mouse Alexa Fluro® conjugated secondary antibodies (Invitrogen) in 2% milk for 1 hour at room temperature. Membranes were washed in TBS-T for 4×10 minutes and in TBS for 1×10-minute wash. Proteins were visualized using Odyssey® infrared imaging system. Protein expression was quantified using Image Studio Lite (Version 5.2) and expression intensities were normalized to a house keeping protein, α-Tubulin or β-actin.

[4] = test system: BDNF; experiment: Western blot of BDNF in brain regions, chronic cocaine ± 5-MeO-DMT; assay type: in vivo, Male Wistar rats; conditions: for BDNF expression: 24 h; for BDNF levels: 120 h
Text: as §1, §2, §3, §4, §5

For `COc1ccc2[nH]cc(CCN(C)C)c2c1` [5-MeO-DMT, 5-methoxy-N,N-dimethyltryptamine], the mGluR5 expression ([1]; PFC, 24 h, 20 mg/kg 5-MeO-DMT in saline treated animals) is listed as “significant decrease in receptor expression”, the mGluR5 expression ([1]; nucleus accumbens, 5-MeO-DMT, either tested concentration) is listed as “no change” and the “terminal half-life (t½)” value [2] is listed as 12 to 19 min. For the same molecule, the “time of maximal drug concentration” value [2] was 5 to 7 min, the FosB expression ([3]; PFC, 24 h and 120 h, any of the treatments) was “unchanged by any of the treatments” and the FosB expression ([3]; amygdala, 24 h, any treatment) was “no change in FosB levels”. For the same molecule, the FosB expression ([3]; amygdala, 120 h, cocaine x 5-MeO-DMT interaction p=0.0353) was “no post hoc differences between treatment groups”, the FosB expression ([3]; dorsal striatum, 24 h, 5-MeO-DMT alone) was “does not regulate the expression” and the FosB expression ([3]; dorsal striatum, 120 h, irrespective of the treatment group) was “no change in expression levels”. For the same molecule, the FosB expression ([3]; nucleus accumbens, 24 h, cocaine+10 mg/kg 5-MeO-DMT (1 h post last cocaine)) was “increase FosB expression”, the FosB expression ([3]; nucleus accumbens, 24 h, cocaine+20 mg/kg 5-MeO-DMT (1 h post last cocaine)) was “no significant difference in FosB expression levels relative to the saline+vehicle control group” and the FosB expression ([3]; nucleus accumbens, 24 h, saline+10 mg/kg 5-MeO-DMT single dose) was “not 10 mg/kg increasing expression”. The FosB expression ([3]; nucleus accumbens, 24 h, saline+20 mg/kg 5-MeO-DMT single dose) was “increasing expression”, the FosB expression ([3]; nucleus accumbens, 120 h, 5-MeO-DMT alone) was “does not persist to 120 hours” and the BDNF expression ([4]; PFC, cocaine+10 mg/kg 5-MeO-DMT relative to saline+vehicle) was “significant decrease in BDNF expression”. For the same molecule, the BDNF expression ([4]; PFC, cocaine+20 mg/kg 5-MeO-DMT relative to saline+vehicle) was “significant decrease in BDNF expression”, the BDNF expression ([4]; hippocampus, any of the treatment groups) was “no change in BDNF expression” and the BDNF levels ([4]; hippocampus, 10 mg/kg 5-MeO-DMT alone) was “no effect alone”. For the same molecule, the BDNF levels ([4]; hippocampus, 20 mg/kg 5-MeO-DMT alone) was “significant decrease in BDNF levels”, the BDNF levels ([4]; hippocampus, cocaine+10 mg/kg 5-MeO-DMT) was “does not affect the cocaine-induced decrease in expression levels” and the BDNF levels ([4]; hippocampus, cocaine+20 mg/kg 5-MeO-DMT) was “restores BDNF levels to those seen in the control group”.
